Measured values as given in ChEMBL document CHEMBL5257035, “Nucleoside Derived Antibiotics to Fight Microbial Drug Resistance: New Utilities for an Established Class of Drugs?” (J Med Chem, 2016).
Values after ≈ are worked out from the molar mass of the structure shown.

Legend:
[1] = tested on: Mycolicibacterium smegmatis; experiment: Antibacterial activity against Mycobacterium smegmatis SANK75075 assessed as bacterial growth inhibition; type: functional
Pseudomonas aeruginosa [2] = experiment: Antibacterial activity against Pseudomonas aeruginosa assessed as bacterial growth reduction; type: functional
[3] = target: T1, Phospho-N-acetylmuramoyl-pentapeptide-transferase (Escherichia coli K-12, UniProt P0A6W3); experiment: Inhibition of MraY in Escherichia coli K12
T1 sequence (P0A6W3 whole entry): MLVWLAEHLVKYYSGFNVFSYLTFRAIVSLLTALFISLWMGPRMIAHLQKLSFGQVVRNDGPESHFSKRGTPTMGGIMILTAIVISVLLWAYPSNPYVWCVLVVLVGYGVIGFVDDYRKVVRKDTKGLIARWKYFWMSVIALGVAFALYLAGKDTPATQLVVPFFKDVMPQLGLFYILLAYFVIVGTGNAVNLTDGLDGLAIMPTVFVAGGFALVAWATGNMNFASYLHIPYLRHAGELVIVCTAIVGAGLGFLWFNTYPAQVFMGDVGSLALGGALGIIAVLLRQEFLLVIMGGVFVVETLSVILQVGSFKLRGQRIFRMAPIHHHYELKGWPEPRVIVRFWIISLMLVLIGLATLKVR

Escherichia coli = experiment: Antibacterial activity against Escherichia coli ATCC 25922 assessed as bacterial growth inhibition measured after 48 hrs by microdilution method; type: functional
Pseudomonas aeruginosa [4] = experiment: Antibacterial activity against Pseudomonas aeruginosa assessed as bacterial growth inhibition; type: functional
Staphylococcus aureus = experiment: Antibacterial activity against methicillin-resistant Staphylococcus aureus SR3637 assessed as reduction in bacterial growth inhibition; type: functional
Cryptococcus neoformans = experiment: Antifungal activity against Cryptococcus neoformans assessed as reduction in fungal growth; type: functional
Coccidioides immitis = experiment: Antifungal activity against Coccidioides immitis assessed as reduction in fungal growth; type: functional
[5] = Cytotoxicity against human HepG2 cells assessed as reduction in cell viability incubated for 72 hrs by MTT assay; type: toxicity, cell-based
Mycobacterium kansasii = experiment: Antimycobacterial activity against Mycobacterium kansasii assessed as microbial growth reduction; type: functional
[6] = tested on: Mycobacterium intracellulare; experiment: Antimycobacterial activity against Mycobacterium intracellulare assessed as microbial growth reduction; type: functional
Mycobacterium avium = experiment: Antimycobacterial activity against Mycobacterium avium assessed as microbial growth reduction; type: functional
[7] = tested on: Cutaneotrichosporon cutaneum; experiment: Antifungal activity against Trichosporon cutaneum 3071 assessed as reduction in microbial growth inhibition for 48 hrs by broth microdilution assay; type: functional
Candida albicans = experiment: Antifungal activity against Candida albicans SC5314 assessed as reduction in microbial growth inhibition incubated for 48 hrs by broth microdilution assay; type: functional

## CCCCCCCCCNC(=O)C1=C[C@@H](O)[C@@H](O)[C@H](O[C@@H](C(N)=O)[C@H]2O[C@@H](n3ccc(=O)[nH]c3=O)[C@H](O)[C@@H]2OC)O1
[1]
  MIC: 12.5 µg/mL (≈ 21.4 µM)

## C[C@@H]([C@H](NC(=O)[C@H](Cc1ccccc1)NC(=O)N[C@@H](Cc1c[nH]c2ccccc12)C(=O)O)C(=O)NCC1C[C@@H](O)[C@H](n2ccc(=O)[nH]c2=O)O1)N(C)C(=O)[C@@H](N)Cc1ccc(O)cc1 (stereo partly drawn)
Pseudomonas aeruginosa [2]
  MIC: 16 µg/mL (≈ 18.1 µM)

## CCCCCCCCCCCNC[C@@H](O[C@@H]1O[C@H](CN)[C@@H](O)[C@H]1O)[C@H]1O[C@@H](n2ccc(=O)[nH]c2=O)[C@H](O)[C@@H]1O
[3]
  IC50: 330 nM
Escherichia coli
  MIC: 2.5 µg/mL (≈ 4.47 µM)

## NC(=O)c1ncn([C@@H]2O[C@H](CO)[C@@H](O)[C@H]2O)n1 [RIBAVIRIN]
Pseudomonas aeruginosa [4]
  MIC: 3 µg/mL (≈ 12.3 µM)

## CCCCCCCCCCCNC(=O)C1=C[C@@H](O)[C@@H](O)[C@H](O[C@@H](C(N)=O)[C@H]2O[C@@H](n3ccc(=O)[nH]c3=O)[C@H](O)[C@@H]2OC)O1
[1]
  MIC: 12.5 µg/mL (≈ 20.4 µM)

## CCCCCCCCCCCCCC(=O)NC[C@@H]1C[C@H]2[C@@H](C(=O)N1CCCNC(=N)N)[C@H]([C@H]1O[C@@H](n3ccc(=O)[nH]c3=O)[C@H](O)[C@@H]1O)ON2CCCN
Staphylococcus aureus
  MIC: 8 µg/mL (≈ 10.7 µM)

## C[C@@H]([C@H](NC(=O)[C@H](Cc1ccccc1)NC(=O)N[C@@H](Cc1c[nH]c2ccccc12)C(=O)O)C(=O)NC[C@H]1C[C@@H](O)[C@H](n2ccc(=O)[nH]c2=O)O1)N(C)C(=O)CN
Pseudomonas aeruginosa [2]
  MIC: 8 µg/mL (≈ 10.3 µM)

## CCCCCCCCCCCCCC[C@@H](NC(=O)C(C)CCCNC(=N)N)C(=O)NC[C@@H]1CC[C@H]2[C@@H](C(=O)N1)[C@H]([C@H]1O[C@@H](n3ccc(=O)[nH]c3=O)[C@H](O)[C@@H]1O)ON2CCCN (stereo partly drawn)
Staphylococcus aureus
  MIC: 8 µg/mL (≈ 9.27 µM)

## N[C@@H](Cc1ccccc1)C(=O)N[C@H](C(=O)O)[C@@H]1C[C@@H](O)[C@@H](O)[C@H](n2ccc(=O)[nH]c2=O)O1
Cryptococcus neoformans
  MIC: 0.25 µg/mL (≈ 0.557 µM)
Coccidioides immitis
  MIC: 0.25 µg/mL (≈ 0.557 µM)

## CCCCCCCCCCCCCC(=O)NC[C@@H]1C[C@H]2[C@@H](C(=O)N1CCCNC(=N)N)[C@@H]([C@H]1O[C@@H](n3ccc(=O)[nH]c3=O)[C@H](O)[C@@H]1O)ON2CCCN
Staphylococcus aureus
  MIC: 8 µg/mL (≈ 10.7 µM)

## CC(C)C[C@H](NC(=O)N[C@@H](Cc1ccc(O)cc1)C(=O)O)C(=O)N[C@H](C(=O)NCC1C[C@@H](O)[C@H](n2ccc(=O)[nH]c2=O)O1)[C@H](C)N(C)C(=O)[C@H](C)N (stereo partly drawn)
Pseudomonas aeruginosa [2]
  MIC: 16 µg/mL (≈ 21.8 µM)

## CCCCCCCCCCCCCNC[C@@H](O[C@@H]1O[C@H](CN)[C@@H](O)[C@H]1O)[C@H]1O[C@@H](n2ccc(=O)[nH]c2=O)[C@H](O)[C@@H]1O
[3]
  IC50: 330 nM
Escherichia coli
  MIC: 2.5 µg/mL (≈ 4.26 µM)

## CC(C)C[C@H](NC(=O)N[C@@H](Cc1c[nH]c2ccccc12)C(=O)O)C(=O)N[C@H](C(=O)NC[C@H]1C[C@@H](O)[C@H](n2ccc(=O)[nH]c2=O)O1)[C@H](C)N(C)C(=O)CN
Pseudomonas aeruginosa [2]
  MIC: 4 µg/mL (≈ 5.39 µM)

## CCCCOc1ccc(-c2ccc(CC[C@H](NC(=O)[C@@H](NC(=O)N[C@H](C(=O)O)C(C)C)[C@@H]3CCNC(=N)N3)C(=O)NCCCNC(C(=O)O)[C@H](O[C@@H]3O[C@H](CN)[C@@H](O)[C@H]3O)[C@H]3O[C@@H](n4ccc(=O)[nH]c4=O)[C@H](O)[C@@H]3O)cc2)cc1 (stereo partly drawn)
[5]
  IC50 at 72 h: > 100 µg/mL

## CCCCCCCCCCCCCC(=O)O[C@@H]1[C@H](OC)[C@@H]([C@@H](O[C@@H]2OC(C(=O)N[C@H]3CCC[C@@H](C)NC3=O)=C[C@@H](O)[C@H]2O)C(N)=O)O[C@H]1n1ccc(=O)[nH]c1=O
Mycobacterium kansasii
  MIC: 0.063 µg/mL (≈ 0.0794 µM)
[6]
  MIC: 0.063 µg/mL (≈ 0.0794 µM)
Mycobacterium avium
  MIC: 0.063 µg/mL (≈ 0.0794 µM)

## CCCCCCCCCNC[C@@H](O[C@@H]1O[C@H](CN)[C@@H](O)[C@H]1O)[C@H]1O[C@@H](n2ccc(=O)[nH]c2=O)[C@H](O)[C@@H]1O
[3]
  IC50: 330 nM
Escherichia coli
  MIC: 2.5 µg/mL (≈ 4.71 µM)

## C/C=C1\CN(C(=O)[C@@H](NC(=O)[C@@H](N)[C@H](O)[C@@H](O)COC(N)=O)[C@H]2O[C@@H](n3cc(C=O)[nH]c3=O)[C@H](O)[C@@H]2O)[C@H]1C(=O)O
[7]
  MIC: 0.5 µg/mL
Candida albicans
  MIC: > 256 µg/mL

## CCCCCCCCCCCCCCC(=O)O[C@@H]1[C@H](OC)[C@@H]([C@@H](O[C@@H]2OC(C(=O)N[C@H]3CCC[C@@H](C)NC3=O)=C[C@@H](O)[C@H]2O)C(N)=O)O[C@H]1n1ccc(=O)[nH]c1=O
Mycobacterium kansasii
  MIC: 0.063 µg/mL (≈ 0.078 µM)
[6]
  MIC: 0.063 µg/mL (≈ 0.078 µM)
Mycobacterium avium
  MIC: 0.063 µg/mL (≈ 0.078 µM)

## CSCC[C@H](NC(=O)NC(Cc1cccc(O)c1)C(=O)O)C(=O)NC(CN(C)C(=O)[C@@H](N)C(Cc1cccc(O)c1)NCC(=O)O)C(=O)N/C=C1/C[C@@H](O)[C@H](N2CCC(=O)NC2=O)O1 (stereo partly drawn)
Pseudomonas aeruginosa [4]
  MIC: 1.5 µg/mL (≈ 1.64 µM)
